The source of these data is US5607836A, “Methods of detecting compounds which bind to the P2U receptor” (The Curators of the University of Missouri, priority 1995, dated 1997).

Assay [1] concerns the target T1, murine P2U receptor (Mus musculus, UniProt P35383). The assay is described as follows: cytoplasmic free calcium (fura-2) in K562 cells transfected with P2U receptor cDNA. It is filed as cell-based. As to conditions: for effect on [Ca^2+ ]i in stable transfectants / prevention of ATP-mediated increases in [Ca^2+ ]i (antagonism): concentrations as high as 1 mM, stable transfectants. More on the design: missing the first 6 nucleotides of the 5' untranslated region of the full length cDNA; expressed in transfected cells; host or cells: K562 human leukemia cells. The text has this:
(§1) Stable and Transient Transfections. To generate stable transfectants expressing the P2U receptor, K562 cells were transfected by electroporation (F. Toneguzzo et al., Mol. Cell. Biol. 6, 703 (1986)) with the neomycin-resistance plasmid pP2R1. pP2R1 is pRc/CMV containing a ~2.4 kb HindIII-NotI fragment of the P2U receptor cDNA, missing the first 6 nucleotides of the 5' untranslated region of the full length cDNA. control cells were stably transfected with pRc/CMV. Cells were sedimented at 200×g for 5 min at room temperature, rinsed once with phosphate-buffered saline (10 mM NaH2 PO4, pH 7.4, 120 mM NaCl, 5 mM KCl), and resuspended in phosphate-buffered saline at a final concentration of 4×10^7 cells/ml. The cells were chilled on ice for 10 min and then transferred in 0.5 ml aliquots to prechilled electroporation cuvettes. DNA (40 μg of pP2R1 linearized with PvuI) was added to the cell suspension, the cells were subjected to a single electrical pulse (1 kV, 25 μF) and the cuvettes were placed on ice. After 10 min, growth medium was added and the cells were incubated at 37° C. Fresh growth medium supplemented with 0.7 mg/ml G418 was added 48 h […], and the cells were incubated for 2 weeks to select for stable transfectants expressing neomycin resistance. Clonal cell lines were then isolated by transferring single cells to individual wells of a 96-well culture plate: each well contained 0.2 ml of conditioned growth medium filtered from K562 stock cultures, 0.2 ml of fresh growth medium, and 0.4 mg/ml G418. The clonal cell lines were cultured for three to four weeks in growth medium containing 0.4 mg/ml G418 and assayed for P2U receptor, the results shown are from one representative clonal cell line.
To generate transient transfectants, K562 cells were transfected as above with 40 μg unlinearized plasmid pCCM6×1 or pP2R (Lustig et al., supra 1993). Cells were incubated for 48 h at 37° C. in 100 mm culture dishes containing 12 ml of growth medium and assayed for P2U receptor activity.
(§2) Cytoplasmic Free Calcium Measurements. Cells were sedimented at 200×g for 5 min at room temperature and washed once with 10 ml of Hepes-bufferedsaline (20 mM Hepes, pH 7.4, 120 mM NaCl, 5 mM KCl, 1 mM MgCl2, and 1 mM CaCl2). Washed cells were suspended in Hepes-buffered saline at 5×10^5 cells/ml, and stored (for up to 4 h) at 37° C. The concentration of cytoplasmic free calcium, [Ca^2+ ]i, was measured by dual-excitation spectrofluorometric analysis of cells loaded with fura-2, a fluorescent probe for calcium.

Assay [2] deals with T2, human P2U receptor (Homo sapiens, UniProt P41231). The assay is described as follows: intracellular calcium by fura-2 fluorescence in 1321N1 human astrocytoma cells expressing the cloned HP2U (LHP2USN). It is filed as cell-based. The following applies: for efficacy / effect in concentration-effect curves: HP2U clone expressed in 1321N1 cells. Here is the method:
(§3) Heteroloqous Expression. A retroviral vector-containing plasmid, pLHP2USN, was constructed by insertion of the cloned CF/T43 cDNA into the EcoRI and XhoI sites of pLXSN (A. Miller and G. Rosman, Biotechniques 7, 980 (1989)). An amphotrophic packaging cell line, PA317, was used to produce the LHP2USN retroviral vector and a control vector containing Neor only (LSN). Clonal human astrocytoma cells 1321N1, UNC strain, generously provided by T. K. Harden (UNC, Chapel Hill, N.C.), were plated at 150,000 cells per 60-mm dish and infected with LHP2USN or LSN (2 hr, 4 ug/ml Polybrene) and after 48 hr selected with 600 ug/ml G418 (Life Technologies, Inc., Gaithersburg, Md., U.S.A.). To assay for receptor activity, intracellular calcium concentration was measured in confluent cells on coverslips by fura-2 fluorescence using microspectrofluorimetry as previously described (S. Mason et al., Br. J. Pharmacol. 103, 1649 (1991)). Measurement of cell inositol phosphate formation was as described by H. Brown et al., Mol. Pharmacol. 40, 648 (1991), in accordance with known techniques.
(§4) A retrovirus expression system was employed to study the cloned CF/T43 HP2U cDNA in 1321N1 human astrocytoma cells. The effect of extracellular nuceotides on intracellular calcium, as measured by fura-2 fluorescence, was assessed in CF/T43 cells, uninfected 1321N1 cells, and 1321N1 cells infected with retroviral vector containing either the cloned HP2U or no insert (LSN).
To examine the pharmacological specifity of the HP2U clone expressed in 1321N1 cells, concentration-effect curves were generated for nucleotides and structural analogues active at P2X, P2Y and P2U receptors (data not shown). […] These concentration-effect relations are very similar to those reported for heterologously expressed murine P2U (Lustig, et al., supra) and virtually indistinguishable from data (not shown) generated for the endogenous CF/T43 and HT-29 receptors. Clearly, the agonist specifities fit the definition of the P2U receptor.
On the technique in general: A change in cytosolic calcium serves as a functional read-out for many receptors and channels.

For assay [3], the target named is T3, P2U receptor of CF/T43 cells (Homo sapiens, UniProt P41231).
T3 construct: fura-2 calcium
Kind of assay: intracellular calcium by fura-2 fluorescence in CF/T43 cells (endogenous receptor). The following applies: pretreatment. The class given is cell-based. Here is the method: as §3, §4

Assay [4] has as its system P2T receptor of K562 cells. Kind of assay: cytoplasmic free calcium (fura-2) in untransfected or vector-transfected K562 cells. It is filed as cell-based, human. The following applies: untransfected K562 cells; for elevation of [Ca^2+ ]i in untransfected K562 cells (P2T receptor): 1 mM for ATP, UTP, ATPγS, BzATP, BzUTP; for effect on [Ca^2+ ]i in untransfected K562 cells: concentrations as high as 1 mM.
From the text: as §1, §2

For assay [5], the target named is T1, murine P2U receptor. Also noted: host or cells: Xenopus oocytes. As to conditions: Lustig et al. 1993, cited from earlier work; for stimulation of ^45 Ca^2+ efflux in oocytes: oocytes expressing the cloned receptor.
Assay [6] addresses T2, human P2U receptor. The assay is described as follows: inositol phosphate formation in 1321N1 cells expressing LHP2USN. As to conditions: HP2U-1321N1 cells; apyrase in the medium during cell-labeling step. It is filed as cell-based. Here is the method:
as §3
To test this possibility more directly, we measured inositol phosphate formation. […] We hypothesized that during the lengthy labeling period 1321N1 cells released 5'-nucleotides into the medium in quantities sufficient to "self-activate" the receptor. […] Thus, it appears the cells are persistently stimulated by nucleotides in an autocrine fashion. The mode of release of nucleotides from the astrocytoma cells and the biological consequences of the persistent autocrine activation are unknown. To facilitate comparison with controls, the inositol phosphate studies were performed on cells pretreated with apyrase.

Assay [7] deals with 1321N1 human astrocytoma cells (uninfected or LSN-infected). The assay is described as follows: intracellular calcium by fura-2 fluorescence in uninfected or LSN-infected 1321N1 control cells. The following applies: uninfected or LSN-infected controls. It is filed as cell-based. As for the experimental part: as §3, §4

T1 sequence (P35383 whole entry, the tested form may be a part): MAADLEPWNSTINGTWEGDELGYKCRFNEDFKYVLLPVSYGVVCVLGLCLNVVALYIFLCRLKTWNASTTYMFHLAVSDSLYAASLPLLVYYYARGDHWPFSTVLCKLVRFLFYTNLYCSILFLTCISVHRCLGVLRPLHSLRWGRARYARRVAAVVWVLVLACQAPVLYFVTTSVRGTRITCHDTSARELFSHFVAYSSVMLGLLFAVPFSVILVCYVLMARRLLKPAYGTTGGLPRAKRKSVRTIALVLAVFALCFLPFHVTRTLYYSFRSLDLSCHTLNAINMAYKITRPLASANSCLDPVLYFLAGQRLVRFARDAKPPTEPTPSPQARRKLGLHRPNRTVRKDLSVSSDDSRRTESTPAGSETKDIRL
T2 sequence (P41231 whole entry): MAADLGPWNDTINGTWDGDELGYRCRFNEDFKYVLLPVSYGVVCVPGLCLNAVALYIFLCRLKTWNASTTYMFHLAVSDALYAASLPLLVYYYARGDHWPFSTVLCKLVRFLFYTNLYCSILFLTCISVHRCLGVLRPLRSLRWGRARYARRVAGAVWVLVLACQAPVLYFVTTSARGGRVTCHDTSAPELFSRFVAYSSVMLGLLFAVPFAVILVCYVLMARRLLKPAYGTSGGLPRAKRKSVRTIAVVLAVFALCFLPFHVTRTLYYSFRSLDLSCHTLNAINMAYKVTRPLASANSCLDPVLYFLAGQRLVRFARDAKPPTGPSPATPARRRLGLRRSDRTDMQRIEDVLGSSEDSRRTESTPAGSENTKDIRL
T3 sequence (P41231 whole entry): as above

As for `O=C(O[C@H]1[C@@H](O)[C@H](n2ccc(=O)[nH]c2=O)O[C@@H]1COP(=O)(O)OP(=O)(O)OP(=O)(O)O)c1ccc(C(=O)c2ccccc2)cc1` [BzUTP, 3'-O-(4-benzoyl)benzoyl uridine 5'-triphosphate], on murine P2U receptor [1] (K562 stable transfectants), the “agonist activity at the P2U receptor” value is “relatively weak agonists compared to ATP and UTP”.
For pertussis toxin, the “inhibition of ATP-stimulated intracellular Ca^2+ mobilization” value is recorded as 20-30% at human P2U receptor [2] (HP2U-1321N1 cells, pretreatment) and 20-30% in assay [3].
With `CSc1nc(N)c2ncn([C@@H]3O[C@H](COP(=O)(O)OP(=O)(O)OP(=O)(O)O)[C@@H](O)[C@H]3O)c2n1` [2-MeSATP, 2-methylthioATP], the “elevation of [Ca^2+ ]i in untransfected K562 cells (P2T receptor)” value in assay [4] is “elevated [Ca^2+ ]i”. The “efficacy / effect in concentration-effect curves” value on human P2U receptor [2] is given as “had little effect”. Further, the “stimulation of ^45 Ca^2+ efflux in oocytes” value at murine P2U receptor [5] is “did not stimulate”. The “agonist activity at the P2U receptor” value on murine P2U receptor [1] (K562 stable transfectants) is “do not appear to act as agonists of the P2U receptor”.
On to `Nc1nc2c(ncn2[C@@H]2O[C@H](COP(=O)(O)OP(=O)(O)OP(=O)(O)O)[C@@H](O)[C@H]2O)c(=O)[nH]1` [GTP], for which, in assay [4], the “effect on [Ca^2+ ]i in untransfected K562 cells” value is reported as “had no effect”. In addition, at murine P2U receptor [1], the “effect on [Ca^2+ ]i in stable transfectants” value is listed as “had no effect” and the “prevention of ATP-mediated increases in [Ca^2+ ]i (antagonism)” value (shortened to “prevention of ATP-mediated increases”) is recorded as “did not prevent ATP-mediated increases”.
As to `Nc1ncnc2c1ncn2[C@@H]1O[C@H](COP(=O)(O)CP(=O)(O)OP(=O)(O)O)[C@@H](O)[C@H]1O` [α,β-MeATP], at human P2U receptor [2], the “efficacy / effect in concentration-effect curves” value is given as “had little effect”.
With `Nc1ncnc2c1ncn2[C@@H]1O[C@H](COP(=O)(O)O)[C@@H](O)[C@H]1O` [AMP], the “effect on [Ca^2+ ]i in untransfected K562 cells” value in assay [4] is listed as “had no effect”. For the same compound, at murine P2U receptor [1], the “effect on [Ca^2+ ]i in stable transfectants” value is “had no effect” and the “prevention of ATP-mediated increases” value is recorded as “did not prevent ATP-mediated increases”.
As for `Nc1ncnc2c1ncn2[C@@H]1O[C@H](COP(=O)(O)OP(=O)(O)CP(=O)(O)O)[C@@H](O)[C@H]1O` [β,γ methyleneATP], in assay [4], the “effect on [Ca^2+ ]i in untransfected K562 cells” value is given as “had no effect”. Moreover, on murine P2U receptor [1], the “effect on [Ca^2+ ]i in stable transfectants” value is “had no effect” and the “prevention of ATP-mediated increases” value was “did not prevent ATP-mediated increases”.
With `Nc1ncnc2c1ncn2[C@@H]1O[C@H](COP(=O)(O)OP(=O)(O)OP(=O)(O)O)[C@@H](OC(=O)c2ccc(C(=O)c3ccccc3)cc2)[C@H]1O` [BzATP, 3'-O-(4-benzoyl)benzoyl adenosine 5'-triphosphate], the “agonist activity at the P2U receptor” value on murine P2U receptor [1] (K562 stable transfectants) was “relatively weak agonists compared to ATP and UTP”.
For the compound `Cc1cn([C@H]2C[C@H](O)[C@@H](COP(=O)(O)OP(=O)(O)OP(=O)(O)O)O2)c(=O)[nH]c1=O` [TTP], the “effect on [Ca^2+ ]i in untransfected K562 cells” value in assay [4] is listed as “had no effect”. At murine P2U receptor [1], the “effect on [Ca^2+ ]i in stable transfectants” value is reported as “had no effect” and the “prevention of ATP-mediated increases” value is on record as “did not prevent ATP-mediated increases”.
apyrase: on human P2U receptor [6], the “baseline inositol phosphate levels” value is “reduced the baseline inositol phosphate levels to values near those of controls”.
With `Nc1ncnc2c1ncn2[C@@H]1O[C@H](COP(=O)(O)OP(=O)(O)NP(=O)(O)O)[C@@H](O)[C@H]1O` [β,γ imidoATP], in assay [4], the “effect on [Ca^2+ ]i in untransfected K562 cells” value is recorded as “had no effect”. Besides, at murine P2U receptor [1], the “effect on [Ca^2+ ]i in stable transfectants” value was “had no effect” and the “prevention of ATP-mediated increases” value is listed as “did not prevent ATP-mediated increases”.
Turning to `O=c1ccn([C@@H]2O[C@H](COP(=O)(O)OP(=O)(O)O)[C@@H](O)[C@H]2O)c(=O)[nH]1` [UDP], the “effect on [Ca^2+ ]i in untransfected K562 cells” value in assay [4] is “had no effect”. On murine P2U receptor [1], the “effect on [Ca^2+ ]i in stable transfectants” value is “had no effect” and the “prevention of ATP-mediated increases” value is recorded as “did not prevent ATP-mediated increases”.
For `Nc1ncnc2c1ncn2[C@@H]1O[C@H](CO)[C@@H](O)[C@H]1O` [adenosine], the “effect on [Ca^2+ ]i in untransfected K562 cells” value in assay [4] was “had no effect”. At murine P2U receptor [1], the “effect on [Ca^2+ ]i in stable transfectants” value is listed as “had no effect” and the “prevention of ATP-mediated increases” value is “did not prevent ATP-mediated increases”.
In the case of `Nc1ccn([C@@H]2O[C@H](COP(=O)(O)OP(=O)(O)OP(=O)(O)O)[C@@H](O)[C@H]2O)c(=O)n1` [CTP], the “effect on [Ca^2+ ]i in untransfected K562 cells” value in assay [4] is “had no effect”. At murine P2U receptor [1], the “effect on [Ca^2+ ]i in stable transfectants” value is reported as “had no effect” and the “prevention of ATP-mediated increases” value is on record as “did not prevent ATP-mediated increases”.
Turning to `Nc1ncnc2c1ncn2[C@@H]1O[C@H](COP(=O)(O)OP(=O)(O)O)[C@@H](O)[C@H]1O` [ADP], the “elevation of [Ca^2+ ]i in untransfected K562 cells (P2T receptor)” value in assay [4] was “elevated [Ca^2+ ]i”. Also, the “stimulation of ^45 Ca^2+ efflux in oocytes” value on murine P2U receptor [5] is on record as “did not stimulate”. Besides, the “agonist activity at the P2U receptor” value on murine P2U receptor [1] (K562 stable transfectants) was “do not appear to act as agonists of the P2U receptor”.
In the case of `C[N+](C)(C)CCOC(N)=O` [carbachol], the “[Ca^2+ ]i response of uninfected or LSN-infected 1321N1 cells” value in assay [7] is “elicited responses in each case”.
One may read the EC50 as the concentration needed to bring the measured effect to its halfway point. For `Nc1ncnc2c1ncn2[C@@H]1O[C@H](COP(=O)(O)OP(=O)(O)OP(O)(O)=S)[C@@H](O)[C@H]1O` [ATPγS], the “agonist activity at the P2U receptor in Xenopus oocytes” value on murine P2U receptor [5] (Xenopus oocytes) is “relatively potent agonist”. On murine P2U receptor [1] (K562 stable transfectants), the “agonist activity at the P2U receptor” value was “relatively potent agonist”. Besides, the EC50 on murine P2U receptor [1] (K562 stable transfectants, read-out: EC50 for increases in [Ca^2+ ]i) was about 9.6 µM.
